This note sets out measurements from PubChem BioAssay AID624129 (Sanford-Burnham Center for Chemical Genomics, 2012).

The target of this assay is C-X-C chemokine receptor type 6 (Homo sapiens) (UniProt O00574). The assay is described as follows: CXCR6 receptor antagonists, dose response, cell-based, beta-arrestin, DiscoveRx, APJ panel, uHTS hits (AID 624129). The settings on record: CXCR6 beta-arrestin (DiscoveRx) antagonist cell assay; for outcome: CXCR6, dose range 1; for inhibition: CXCR6, run 2, dose range 1, at 79 µM (top of the series).

Where [1] appears, read: CXCR6, dose range 1, mean IC50 across replicates.

pIC50: −log10 of the molar value. Active and inactive are the calls of the source. The rule behind the calls is not given here.

Chain of C-X-C chemokine receptor type 6 (Homo sapiens) (O00574 whole entry, looked up): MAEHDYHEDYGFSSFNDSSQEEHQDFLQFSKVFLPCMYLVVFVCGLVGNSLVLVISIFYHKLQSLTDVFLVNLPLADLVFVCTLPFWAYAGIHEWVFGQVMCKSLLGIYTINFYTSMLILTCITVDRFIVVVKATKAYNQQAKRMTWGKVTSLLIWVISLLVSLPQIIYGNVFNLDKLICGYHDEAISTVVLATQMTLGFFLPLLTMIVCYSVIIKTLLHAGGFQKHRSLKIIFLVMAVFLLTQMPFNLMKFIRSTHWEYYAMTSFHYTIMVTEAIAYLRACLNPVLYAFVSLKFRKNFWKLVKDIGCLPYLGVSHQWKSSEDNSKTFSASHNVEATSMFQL

Regarding `CC(=O)N1N=C(c2cccs2)CC1c1cccc([N+](=O)[O-])c1` (stereo not given), the outcome was inactive and the inhibition came to 73.7%. Moreover, under setting [1], the negative-log IC50 (pIC50) was 4.63. Further, the pIC50 (CXCR6, run 1, dose range 2) is 4.68. Under “CXCR6, run 2, dose range 2”, this compound showed a pIC50 of 4.59.

Take `COc1cc(C(=O)NCC(c2ccco2)N2CCc3ccccc3C2)cc(OC)c1OC` (stereo not given): the result was inactive and the inhibition turned out to be 72.2%. Besides, the pIC50 under setting [1] is 4.65. Further, where the note is “CXCR6, run 1, dose range 2”, the negative-log IC50 (pIC50) is 4.78. Besides, the negative logarithm of the IC50 (pIC50) (CXCR6, run 2, dose range 2) is 4.56.

As for `CC[N+]1(C)CCC(O)(/C=C/c2ccccc2)C(C(=O)/C=C/c2ccccc2)C1` (stereo not given), the outcome was inactive and the inhibition was found to be 112%. In addition, under setting [1], the negative logarithm of the IC50 (pIC50) was 4.74. Under “CXCR6, run 1, dose range 2”, this compound had a pIC50 of 4.75. In addition, the pIC50 (CXCR6, run 2, dose range 2) is 4.73.

Take `CC(O)CN(CC(C)O)c1ccc2c(c1)Cc1cc([N+](=O)[O-])ccc1-2` (stereo not given): the result was inactive and the inhibition is 76%. This compound also had a negative-log IC50 (pIC50) under setting [1] of 4.67. Also, under “CXCR6, run 1, dose range 2”, the negative logarithm of the IC50 (pIC50) was 4.70. The pIC50 (CXCR6, run 2, dose range 2) was 4.64.

On to `CCc1ccc(NC(=O)c2nc(S(=O)(=O)Cc3ccccc3)ncc2Cl)cc1`, for which the outcome was inactive and the inhibition worked out at 111%. The negative logarithm of the IC50 (pIC50) under setting [1] is 4.92. The same compound gave a negative-log IC50 (pIC50) (CXCR6, run 1, dose range 2) of 4.96. This compound also had a pIC50 (CXCR6, run 2, dose range 2) of 4.88.

Take `COc1cc(/C=C(\C#N)c2nc(-c3cc4ccccc4oc3=O)cs2)ccc1O`: the result was inactive and the inhibition is 84.1%. In addition, the pIC50 under setting [1] is 4.51. Further, where the note is “CXCR6, run 1, dose range 2”, the pIC50 is 4.63. Besides, the pIC50 (CXCR6, run 2, dose range 2) was 4.42.

Turning to `COC(=O)c1ccc(/C=C(\C#N)C(=O)NC(C)c2ccccc2)cc1` (stereo not given), the outcome was inactive and the inhibition came out at 112%. Also, the negative logarithm of the IC50 (pIC50) under setting [1] is 4.85. For the same compound, the pIC50 (CXCR6, run 1, dose range 2) is 4.87. For the same compound, for the setting “CXCR6, run 2, dose range 2”, the pIC50 was 4.84.

For the compound `CCCC/C=C1/CCC(CN(C)C)C1=O` (stereo not given), the outcome was inactive and the inhibition came out at 110%. Under setting [1], this compound showed a pIC50 of 4.65. For the same compound, the negative-log IC50 (pIC50) (CXCR6, run 1, dose range 2) was 4.65. Under “CXCR6, run 2, dose range 2”, this compound showed a negative logarithm of the IC50 (pIC50) of 4.64.

On to `CCCC(=O)OCCNc1cc(SCc2ccco2)c2nonc2c1[N+](=O)[O-]`, for which the outcome was inactive and the inhibition was 103%. The pIC50 under setting [1] was 4.91. Besides, the negative-log IC50 (pIC50) (CXCR6, run 1, dose range 2) is 4.95. Also, the pIC50 (CXCR6, run 2, dose range 2) is 4.88.

As to `Cn1c(=O)n(C)c2cc([N+](=O)[O-])c(N3CCN(C(=O)c4cccc(Cl)c4)CC3)cc21`, the outcome was inactive and the inhibition turned out to be 60.7%. The pIC50 under setting [1] is 4.95. For the same compound, the pIC50 (CXCR6, run 1, dose range 2) is 4.95. Moreover, the negative logarithm of the IC50 (pIC50) (CXCR6, run 2, dose range 2) is 4.96.

As for `COc1cc(C2C(C#N)=C(N)Oc3n[nH]c(-c4cccnc4)c32)cc(Br)c1O` (stereo not given), the outcome was inactive and the inhibition came out at 86.6%. Under setting [1], this compound showed a negative-log IC50 (pIC50) of 4.54. Moreover, where the note is “CXCR6, run 1, dose range 2”, the negative-log IC50 (pIC50) is 4.61. Where the note is “CXCR6, run 2, dose range 2”, this compound showed a pIC50 of 4.48.

In the case of `CC1(C)CC[C@]2(C(=O)n3ccnc3)CC[C@]3(C)[C@H](C(=O)C=C4[C@@]5(C)C=C(C#N)C(=O)C(C)(C)[C@@H]5CC[C@]43C)[C@@H]2C1`, the outcome was inactive and the inhibition was determined as 105%. Besides, the pIC50 under setting [1] is 4.79. The compound further had a pIC50 (CXCR6, run 1, dose range 2) of 4.84. Further, the negative logarithm of the IC50 (pIC50) (CXCR6, run 2, dose range 2) was 4.74.

With `Fc1ccc(NC(=S)NNc2ncc(C(F)(F)F)cc2Cl)c(F)c1`, the result was inactive and the inhibition worked out at 109%. In addition, under setting [1], the negative-log IC50 (pIC50) is 4.94. Moreover, the negative-log IC50 (pIC50) (CXCR6, run 1, dose range 2) was 4.95. The same compound showed a pIC50 (CXCR6, run 2, dose range 2) of 4.92.

`COC(=O)c1ccc(C)c(-n2c(=O)n(Cc3ccccc3)c(=O)c3[nH]cnc32)c1`: the outcome was inactive and the inhibition was 73%. This compound also had a negative-log IC50 (pIC50) under setting [1] of 4.89. This compound also showed a negative-log IC50 (pIC50) (CXCR6, run 1, dose range 2) of 4.93. For the setting “CXCR6, run 2, dose range 2”, this compound showed a negative-log IC50 (pIC50) of 4.85.

What is called pIC50 is −log10 of the IC50, conventionally taken in molar units. A lower pIC50 goes with a high IC50. The inhibition is the drop in the measured response relative to a control, in per cent.
